According to patent publication US6479067B2, “Methods for treating ovarian cancer, poly (phosphoester) compositions, and biodegradable articles for same” (Guilford Pharmaceuticals, Inc., priority 1999, dated 2002):
Structures can show the parent of a compound that is named as a salt. Where two headings read alike, the source gives them in different places.

Legend:
[1] = Subcutaneous injection: implant site macrophage counts and irritation scores; type: in vivo, male S-D rats; settings: s.c.
[2] = tested on: melanoma cell line B16/F10
[3] = for Paclitaxel Concentration (plasma): 120 mg/kg i.p.
[4] = 0.7 ml (polymers 89 mg/kg), 7 Day
[5] = 0.7 ml (polymers 89 mg/kg), 14 Day
[6] = 0.7 ml (polymers 89 mg/kg), 31 Day
[7] = 2.0 ml (polymers 267 mg/kg), 7 Day
[8] = 2.0 ml (polymers 267 mg/kg), 14 Day
[9] = 2.0 ml (polymers 267 mg/kg), 31 Day
[10] = 28 days, formulation injected on Day 3
[11] = 28 days, formulation injected on Day 7
[12] = 42 days, formulation injected on Day 3
[13] = 42 days, formulation injected on Day 7

With CC(=O)O [Acetic Acid] the “# = Mean count (implant site macrophages)” value (from here on “# = Mean count”) [1, 4] was 208, the Irritation [1, 4] was “Mild (200-400 Mild Irritation)” and the “# = Mean count” value [1, 5] was 166. The Irritation [1, 5] was “Sl. (0-200 Slight Irritation)”, the “# = Mean count” value [1, 6] was 20 and the Irritation [1, 6] was “Sl. (0-200 Slight Irritation)”. The “# = Mean count” value [1, 7] was 267, the Irritation [1, 7] was “Mild (200-400 Mild Irritation)” and the “# = Mean count” value [1, 8] was 334. The Irritation [1, 8] was “Mild (200-400 Mild Irritation)”, the “# = Mean count” value [1, 9] was 32 and the Irritation [1, 9] was “Sl. (0-200 Slight Irritation)”.
With COc1cccc2c1C(=O)c1c(O)c3c(c(O)c1C2=O)C[C@@](O)(C(=O)CO)C[C@@H]3O[C@H]1C[C@H](N)[C@H](O)[C@H](C)O1 [Bolus Dox, doxorubicin hydrochloride] the “Number of Mice Survived” value [2, 10] was 8, the “Tumor Volume (mm^3 ± SEM) After Tumor Injection” value [2, 10] was 1218.9 ± 304.1 mm^3 and the “Number of Mice Survived” value [2, 11] was 8. The “Tumor Volume (mm^3 ± SEM) After Tumor Injection” value [2, 11] was 1661.2 ± 301.8 mm^3, the “Number of Mice Survived” value [2, 12] was 5 and the “Tumor Volume (mm^3 ± SEM) After Tumor Injection” value [2, 12] was 3942.5 ± 1818 mm^3. The “Number of Mice Survived” value [2, 13] was 3, the “Tumor Volume (mm^3 ± SEM) After Tumor Injection” value [2, 13] was 4394.3 ± 741.3 mm^3 and the “Early death after injection” value ([2]; about 3-4 days after the injections) was “did not produce early death”.
For CC(=O)O[C@H]1C(=O)[C@@]2(C)[C@H]([C@H](OC(=O)c3ccccc3)[C@]3(O)C[C@H](OC(=O)[C@H](O)[C@@H](NC(=O)c4ccccc4)c4ccccc4)C(C)=C1C3(C)C)[C@]1(OC(C)=O)CO[C@@H]1C[C@@H]2O [Paclitaxel w/o polymer, paclitaxel], the “Paclitaxel Concentration (plasma)” value ([3]; 14 days) was “Animal died”, the “Paclitaxel Concentration (plasma)” value ([3]; 28 days) was “Animal died” and the Tolerability ([3]; comparable dose given intraperitoneally) was “could not tolerate the dose”.
